Measured values: patent US20250314668A1, “DNAZYMES FOR SENSING AND IMAGING TARGET MOLECULES” (BOARD OF REGENTS, THE UNIVERSITY OF TEXAS SYSTEM, priority 2024, published 2025)
In the oligonucleotide strings, read from the 5' end, every base follows the letter of its sugar. An asterisk marks phosphorothioate; unmarked linkages are phosphodiester. Other units and linkages are bracketed, terminal groups are in braces. A string of capitals states the bases alone. d = 2'-deoxy (DNA); r = 2'-OH (RNA)

Tests used:
HepG2 cells [1] = experiment: Ferroptosis-induced fluctuations of labile Fe^2+ and Fe^3+ pools (RSL3); type: cell-based
Procedure: Ferroptosis-induced fluctuations of labile Fe^2+ and Fe^3+ pools: HepG2 cells were treated with 1 μM RSL3 in normal MEM at different time points (0, 2, 4, 6, 8, and 10 hours). Then, the cell medium was replaced by iron-deficient MEM containing PEI-ErS or PEI-iErS and incubated in a 37° C., 5% CO2 incubator for another 4 hours. Before imaging, the cells were stained by LysoTracker Red and Hoechst 33258 for 15 min. After washing with PBS, the cells were incubated in iron-deficient MEM during the imaging.

cultured cell lines = experiment: Iron redox changes in cultured cell lines with ferroptosis inducers and NCOA4 regulators; type: cell-based
HepG2 cells [2] = experiment: MTT assay of cytotoxicity of RSL3; type: cell-based; conditions: 1 μM RSL3, over 8 hours
Procedure: To measure the cytotoxicity of RSL3 to HepG2 cells, a standard MTT assay was used. HepG2 cells were seeded at a density of 15,000 cells per well in 96-well plates. When the cells grew to 80% confluence, the medium was replaced by the normal MEM containing 1 μM RSL3 at different time points (0, 2, 4, 6, 8, and 10 hours). Afterward, the cell medium was replaced by the iron-deficient MEM containing PEI-ErS or PEI-iErS, incubated in a 37° C., 5% CO2 incubator for another 4 hours. The absorbance at 570 nm was measured with a SpectraMax M2 microplate reader to obtain the MTT assay readings. The untreated cells were set as a blank control for normalization.

SH-SY5Y cells = experiment: Cell death in FDX1 regulated SH-SY5Y cells with Aβ-Cu treatment; type: cell-based; conditions: FDX1 knocked down cells; 25 µM Tempol or 100 μM Trolox
Description: FIGS. 21A-21C depict cell death in FDX1 regulated SH-SY5Y cells with Aβ-Cu treatment. […] For all graphs, ****p<0.0001, ***p<0.001, **p<0.01, and ns is p>0.05.
Both oxidative stresses and proteotoxic stresses mediated cuproptosis were also observed in neurons during copper overload by elesclomol (ES), which is a copper ionophore, contributing to neuronal death. The high redox properties of copper can promote the Aβ-induced oxidative stress and subsequent neuronal death. […] The hypothesis is that the property of Aβ can be acted as a copper ionophore is part of what contributes to the pathological effects of cuproptosis in AD. To explore more about whether cuproptosis is related to AD neurodegeneration and understand the role of Aβ-Cu in neuronal death, the viability of SH-SY5Y cells with FDX1 knocked down by RNAi were monitored by stimulating with different CuCl2 concentration and 10 μM Aβ for overnight. […] Cu^2+ ions bound to Aβ are consistently more toxic to neuronal cells than Aβ in the absence of Cu^2+ ions.

[3] = test system: corpus callosum brain region; experiment: Iron changes in the cuprizone model of Multiple Sclerosis; type: in vivo, mice; conditions: over the course of cuprizone treatment; back to normal upon removal
Procedure: The study also co-stained the sensors with other antibodies to identify cell identities in neuron degenerative diseases, such as Alzheimer's disease. The antibody staining was performed before staining iron sensors. After traditional immunochemistry staining (need to avoid antigen exposures that require H2O2 or other oxidative reagents), brain slices were changed into the BisTris buffer for iron sensors and incubated with iron sensors for 30 minutes. Then the brain slices were mounted onto slices and imaged immediately to minimize the background cleavage or degradation of the sensors. The iron redox changes in specific cell types were evaluated by taking images with a confocal microscope and analyzing the iron signal that colocalized with specific antibodies. […] The study also observed a decrease in iron levels in microglial cells of wildtype mice brains in the hippocampal region, but an increase in iron levels in 3×Tg mice brains. […] More detailed investigations are still going on to test how they are correlated with this disease process.
With a similar technique, the iron changes were studied with the cuprizone model of Multiple Sclerosis as well. […] The Fe^3+/Fe^2+ elevation was back to normal upon the removal of the chemical, and remyelination of the mice brains.

[4] = Fluorescence based activity assay of Cu^2+ sensor; type: biochemical; conditions: fluorescence at 520 nm, 30 min
Procedure: (§1) Fluorescence based activity assay: For Cu^+ sensor, […] of Cu1 aS Cy5 and 9 µM of Cu1 aE Q were annealed in a buffer of 50 mM Bis-Tris, 150 mM NaCl, pH 7.5. For each test, 2 μL of the annealed sensor was diluted into 194 μL of buffer (50 mM Bis-Tris, 150 mM NaCl, pH 7.5), and 2 μL of 5 mM ascorbate was added. Then 2 μL of 2 μl different concentration of Cu^2+ were added. The signaling kinetics were monitored (Ex=635 nm; Em=666 nm) using Hitachi fluorimeter. For Cu^2+ sensor, the DNAzyme complex was formed by annealing the 5 μM of Cu2 PSrS FAM and 7.5 μM Cu2 aE Q in 50 mM MES, 25 mM NaCl, pH 6.0. For each well, 2 μL of the annealed sensor was diluted into 196 μL of buffer (50 mM MES, 25 mM NaCl, pH 6.0). 2 μL different concentration of Cu^2+ were added to initiate cleavage reaction, and the signaling kinetics were monitored (Ex=488 nm; Em=520 nm) using Hitachi fluorimeter.

[5] = Gel based activity assay of Cu^2+ DNAzyme; type: biochemical
Procedure: (§2) FIG. 10 depicts gel and fluorescence-based activity assay for Cu^+ and Cu^2+ DNAzyme. PAGE Gel images of Cu^+ DNAzyme cleaving the substrate in the presence of various concentrations of Cut. Lane 1: Cu^+ aS, Lane 2: Cu^+ aE, Lane 3-10: the concentration of Cu^2+ is 0 nM, 125 nM, 250 nM, 500 nM, 1 μM, 2 μM, 4 μM, and 8 μM, respectively, the concentration of ascorbate is 50 μM. Quantification of Cu^+. Inset is the linear response at low Cu^+ concentrations. denaturing gel images of Cu^2+ DNAzyme cleaving the substrate in the presence of various concentrations of Cu^2+. Lane1-8: the concentration of Cu^2+ is 0 μM, 1 μM, 2 μM, 4 μM, 6 μM, 8 μM, 10 μM, and 20 μM, respectively. Quantification of Cu^2+. Inset: the linear response at low Cu^2+ concentrations.
(§3) Gel based activity assays: For Cu^+ DNAzyme, 1 μM of Cu1 aS and 2 μM of Cu1 aE were added in 50 mM Bis-Tris, 150 mM NaCl, pH 7.5. The solution was heated at 90° C. for 5 min and slowly cooled down to room temperature for more than 1 h to anneal the DNAzyme. After annealing, each sample contains a final of 5 μL of 0.25 μM DNAzyme complex. 2 ul of 50 μM of freshly prepared ascorbate was mixed with DNAzyme complex. After adding 2 μl different concentration of Cu^2+, incubated at room temperature for 60 min. […] The gels were analyzed with Bio-Rad Gel Doc 2000 imaging system.

cells = experiment: Fe signal changes detected with DNAzyme sensors and flow cytometry; type: cell-based; conditions: treated with Transferrin
Description: Preliminary results: The study detected the Fe signal changes with DNAzyme sensors and flow cytometry.

HepG2 or Hela cells = experiment: Simultaneous imaging of labile Fe^2+ and Fe^3+ in living cells treated with Tf or DFO; type: cell-based
Procedure: For delivery of DNAzyme sensors using PEI (66, 67), the corresponding Fe(II)-H5-ErS, Fe(II)-H5-iErS, Fe(III)-B12-ErS, and Fe(III)-B12-iErS (final concentration of 10 μM) were mixed in the Fe^2+ buffer and Fe^3+ buffer separately. The mixtures were annealed at 95° C. for 5 min and stored at room temperature to allow full hybridization. PEI (25 kDa) was dissolved in water at 1 mg/ml. […] The normal cell medium was replaced with iron-deficient medium before the PEI-ErS or PEI-iErS was added to the cells grown in the plates.
After incubating HepG2 cells with PEI-ErS or PEI-iErS complex for 4 hours, cells were washed with phosphate-buffered saline (PBS) twice to remove excess amounts of complexes in medium. Then, the cells were stained by Hoechst 33258 for 15 min. Images were obtained using a Zeiss LSM 880 confocal microscope at 63× oil objective lens with numerical aperture 1.40 and immersion medium Immersol 518 F (Zeiss) at the UIUC IGB Core Facilities. Florescence emission of Hoechst 33258 was measured over 450 to 500 nm with excitation at 401 nm. Fe(II)-H5 was excited by 488 nm and measured over 500 to 550 nm, and Fe(III)-B12 was excited at 633 nm and measured over 640 to 700 nm. A laser power of 67% and pinhole size of 1 […] (AU) were used for the cellular images. Acquired images were analyzed by ImageJ using JACoP (88, 89). No background subtraction, Z-stacks, Gaussian blur filter, or change thresholds were performed for visualizing the figures. For cell fluorescence quantification, the study quantified the average fluorescence signals intensity in five cells (for TurboFect transfected cells) or five LysoTracker-labeled regions in different cells (for PEI transfected cells), per picture and three pictures per group with Image J (88), for the statistical comparison between groups.
Simultaneous imaging of labile Fe^2+ and Fe^3+ in living cells: HepG2 or Hela cells were cultured in glass-bottom dishes until about 70% confluence. The cells were pretreated with iron-deficient MEM containing either 100 μM DFO, 100 μM ferric ammonium citrate, […] holo-Tf, or 50 μM Tf for 4 hours, and then, the medium was replaced with an iron-deficient MEM containing PEI-ErS or PEI-iErS complexes or Opti-MEM containing 1 μl of TurboFect transfection reagent as described above for 4 hours. Before imaging, the cells were stained by LysoTracker Red and Hoechst 33258 for 15 min. After washing with PBS, the cells were incubated in iron-deficient MEM or regular DMEM, respectively, during the imaging.
Data processing and statistical analysis: To have a direct comparison of the iron amount between groups, the background signals were normalized by subtracting the fluorescence signals in iErS groups from the ErS groups (F-F0). No Z-stacks or change thresholds were used for statistical analysis. Graphs were plotted with GraphPad (GraphPad Software Inc.) or Origin (OriginLabs Corporation) and correspond to a single experiment. Bars represent means±SEM. Two-tailed distribution and two-sample equal variance t test were used for analyzing significance. Dixon's Q tests were performed to identify and exclude outliners. *P<0.05, **P<0.01, and ***P <0.001. […] The presented data described the quantification from single representative replicates from those biological replicates.

[6] = Gel based activity assay of Cu^+ DNAzyme; type: biochemical
Procedure: as §2, §3

[7] = Fluorescence based activity assay of Cu^+ sensor; type: biochemical; conditions: fluorescence at 666 nm, 30 min
Procedure: as §1

[8] = 5 μM Tf group, iron-deficient medium

COC(=O)c1ccc([C@@H]2c3[nH]c4ccccc4c3C[C@@H](C(=O)OC)N2C(=O)CCl)cc1 [RSL3, RAS-selective lethal 3]
increase of Fe^2+ (HepG2 cells [1]; 1 μM RSL3, from 0 to 2 hours, LysoTracker-labeled region): 2.3 fold | increase of Fe^3+ (HepG2 cells [1]; 1 μM RSL3, from 0 to 4 hours, LysoTracker-labeled region): 2.8 fold | increase of Fe^2+ (HepG2 cells [1]; 1 μM RSL3, from 2 to 4 hours, LysoTracker-labeled region): 4.3 fold | Fe^3+/Fe^2+ ratio (Fe redox) during ferroptosis (HepG2 cells [1]; RSL3-induced ferroptosis, endo-lysosomes): continuous decrease | Fe^2+ and Fe^3+ levels in later stage of ferroptosis (HepG2 cells [1]; after 4 hours): both iron levels decreased | Fe^2+ and Fe^3+ during induced ferroptosis (cultured cell lines): increased | Fe^3+/Fe^2+ ratio during induced ferroptosis (cultured cell lines): decreased | MTT assay result (HepG2 cells [2]): cell death

CC1(C)CC(O)CC(C)(C)N1[O] [Tempol]
rescue of Aβ-Cu induced cell death by ROS scavenger (SH-SY5Y cells): fail to fully rescue

Cc1c(C)c2c(c(C)c1O)CCC(C)(C(=O)O)O2 (stereo not shown) [Trolox]
rescue of Aβ-Cu induced cell death by ROS scavenger (SH-SY5Y cells): fail to fully rescue

O=C(NN=C1CCCCC1)C(=O)NN=C1CCCCC1 [cuprizone]
iron redox (Fe^3+/Fe^2+) in corpus callosum [3]: elevated iron redox

Cu^2+ DNAzyme: substrate strand Cu2 PSrS annealed with enzyme strand Cu2 aE (chain 1 dAdGdTdCdAdCdTdAdTrA*dGdGdAdAdGdAdTdGdGdCdGdAdAdA; chain 2 TTTCGCCATCTTCACCAGGAAATAGTGACT; chain 2: unmodified DNA)
detection limit [4]: 35.16 nM | activity with high ascorbic [5]: no activity | selectivity between copper oxidation states [5]: excellent selectivity

transferrin [Tf]
cells with elevated fluorescence intensity (moved from Q4 to Q2) (cells): More than 20% | increase of Fe^2+ sensor signal (HepG2 or Hela cells; [8]): 1.9 fold | increase of Fe^3+ sensor signal (HepG2 or Hela cells; [8]): 1.6 fold | increase for both Fe^3+ and Fe^2+ (HepG2 or Hela cells; normal cell media): around 4 fold | change of the Fe^3+/Fe^2+ ratio (HepG2 or Hela cells; treated cells): No significant change

B1: Cu^+ DNAzyme: substrate strand Cu1 aS annealed with enzyme strand Cu1 aE (nucleic acid)
chain 1: AGCTTCTTTCTAATACGGCTTACCAC
chain 2: GTGGTAAGCCTGGGCCTCTTTCTTTTTAAGAAAGAAC
modifications: DNA, backbone not given here; Cy5 on substrate, Iowa Black RQ on enzyme, further chemistry not fully specified
notes: substrate strand Cu1 aS annealed with enzyme strand Cu1 aE
selectivity between copper oxidation states [6]: excellent selectivity | cleavage dependence on ascorbic ([6]; no cleavage products at low concentrations of ascorbic): ascorbic concentration dependent cleavage | detection limit [7]: 53.92 nM
